Measurements: patent US20070043024A1, “Azacyclic compounds as inhibitors of sensory neurone specific channels” (priority 2003, published 2007)

biological target: T1, human Nav1.8 (hNav1.8) ion channel (Homo sapiens, UniProt Q9Y5Y9); assay: Inhibition of human Nav1.8 stably expressed in SH-SY-5Y cells (membrane potential dye fluorescence assay); assay type: cell-based; conditions: Table 1; SH-SY-5Y hNav1.8 cells, inhibition of membrane depolarisation, FLIPR membrane potential dye, 250 nM TTX, test concentration range 100 μM-0.05 μM; read-out: IC50
T1 construct: expressed in transfected cells
Protocol: Inhibition of Human Nav1.8 Stably Expressed in SH-SY-5Y Cells
A SH-SY-5Y neuroblastoma cell line stably expressing the human […] (hNav1.8) ion channel was constructed. This cell line has been used to develop a medium to high throughput assay for determining the ability of test compounds to inhibit membrane depolarisation mediated via the hNav1.8 channel.
SH-SY-5Y hNav1.8 are grown in adherent monolayer culture using 50:50 Ham's F-12/EMEM tissue culture medium supplemented with 15% (v/v) foetal bovine serum; 2 mM L-glutamine, 1% NEAA and 600 μg·ml^−1 Geneticin sulphate. Cells are removed from the tissue culture flask using trypsin/EDTA and re-plated into black walled, clear bottom 96-well assay plates at 50,000 cells·well^−1 24 hours prior to assay.
On the day of assay the cell assay plates are washed to remove cell culture medium using a sodium free assay buffer (145 mM tetramethyl ammonium chloride; 2 mM calcium chloride; 0.8 mM magnesium chloride hexahydrate; 10 mM HEPES; 10 mM glucose; 5 mM potassium chloride, pH 7.4). Fluorescent membrane potential dye solution (FLIPR™ membrane potential dye, Molecular Devices Corporation), containing 10 μM of a pyrethroid to prevent channel inactivation and 250 nM tetrodotoxin (TTX) to reduce interference from TTX-sensitive sodium channels present in the cell line. Test compound, initially dissolved in dimethyl sulfoxide but further diluted in sodium free buffer, is added to achieve the final test concentration range of 100 μM-0.05 μM.
Cell plates are incubated for 30 minutes at room temperature to allow equilibration of dye and test compound. Plates are then transferred to a fluorescence plate reader for fluorescence measurement using an excitation wavelength of 530 nm whilst measuring fluorescence emission at 565 nm. Baseline fluorescence levels are first determined before the addition of a sodium containing buffer (220 mM sodium chloride; 2 mM calcium chloride; 0.8 mM magnesium chloride hexahydrate; […]; 10 mM glucose; 5 mM potassium chloride. pH 7.4) to cause membrane depolarisation in those cells where channel block has not been effected (final sodium concentration=72.5 mM). Membrane depolarisation is registered by an increase in fluorescence emission at 565 nm.
The change in fluorescence seen in each test well upon the addition of sodium containing buffer is calculated relative to the baseline fluorescence for that well. This figure is then used for calculating the IC50 for each test compound.

T1 sequence (Q9Y5Y9 whole entry): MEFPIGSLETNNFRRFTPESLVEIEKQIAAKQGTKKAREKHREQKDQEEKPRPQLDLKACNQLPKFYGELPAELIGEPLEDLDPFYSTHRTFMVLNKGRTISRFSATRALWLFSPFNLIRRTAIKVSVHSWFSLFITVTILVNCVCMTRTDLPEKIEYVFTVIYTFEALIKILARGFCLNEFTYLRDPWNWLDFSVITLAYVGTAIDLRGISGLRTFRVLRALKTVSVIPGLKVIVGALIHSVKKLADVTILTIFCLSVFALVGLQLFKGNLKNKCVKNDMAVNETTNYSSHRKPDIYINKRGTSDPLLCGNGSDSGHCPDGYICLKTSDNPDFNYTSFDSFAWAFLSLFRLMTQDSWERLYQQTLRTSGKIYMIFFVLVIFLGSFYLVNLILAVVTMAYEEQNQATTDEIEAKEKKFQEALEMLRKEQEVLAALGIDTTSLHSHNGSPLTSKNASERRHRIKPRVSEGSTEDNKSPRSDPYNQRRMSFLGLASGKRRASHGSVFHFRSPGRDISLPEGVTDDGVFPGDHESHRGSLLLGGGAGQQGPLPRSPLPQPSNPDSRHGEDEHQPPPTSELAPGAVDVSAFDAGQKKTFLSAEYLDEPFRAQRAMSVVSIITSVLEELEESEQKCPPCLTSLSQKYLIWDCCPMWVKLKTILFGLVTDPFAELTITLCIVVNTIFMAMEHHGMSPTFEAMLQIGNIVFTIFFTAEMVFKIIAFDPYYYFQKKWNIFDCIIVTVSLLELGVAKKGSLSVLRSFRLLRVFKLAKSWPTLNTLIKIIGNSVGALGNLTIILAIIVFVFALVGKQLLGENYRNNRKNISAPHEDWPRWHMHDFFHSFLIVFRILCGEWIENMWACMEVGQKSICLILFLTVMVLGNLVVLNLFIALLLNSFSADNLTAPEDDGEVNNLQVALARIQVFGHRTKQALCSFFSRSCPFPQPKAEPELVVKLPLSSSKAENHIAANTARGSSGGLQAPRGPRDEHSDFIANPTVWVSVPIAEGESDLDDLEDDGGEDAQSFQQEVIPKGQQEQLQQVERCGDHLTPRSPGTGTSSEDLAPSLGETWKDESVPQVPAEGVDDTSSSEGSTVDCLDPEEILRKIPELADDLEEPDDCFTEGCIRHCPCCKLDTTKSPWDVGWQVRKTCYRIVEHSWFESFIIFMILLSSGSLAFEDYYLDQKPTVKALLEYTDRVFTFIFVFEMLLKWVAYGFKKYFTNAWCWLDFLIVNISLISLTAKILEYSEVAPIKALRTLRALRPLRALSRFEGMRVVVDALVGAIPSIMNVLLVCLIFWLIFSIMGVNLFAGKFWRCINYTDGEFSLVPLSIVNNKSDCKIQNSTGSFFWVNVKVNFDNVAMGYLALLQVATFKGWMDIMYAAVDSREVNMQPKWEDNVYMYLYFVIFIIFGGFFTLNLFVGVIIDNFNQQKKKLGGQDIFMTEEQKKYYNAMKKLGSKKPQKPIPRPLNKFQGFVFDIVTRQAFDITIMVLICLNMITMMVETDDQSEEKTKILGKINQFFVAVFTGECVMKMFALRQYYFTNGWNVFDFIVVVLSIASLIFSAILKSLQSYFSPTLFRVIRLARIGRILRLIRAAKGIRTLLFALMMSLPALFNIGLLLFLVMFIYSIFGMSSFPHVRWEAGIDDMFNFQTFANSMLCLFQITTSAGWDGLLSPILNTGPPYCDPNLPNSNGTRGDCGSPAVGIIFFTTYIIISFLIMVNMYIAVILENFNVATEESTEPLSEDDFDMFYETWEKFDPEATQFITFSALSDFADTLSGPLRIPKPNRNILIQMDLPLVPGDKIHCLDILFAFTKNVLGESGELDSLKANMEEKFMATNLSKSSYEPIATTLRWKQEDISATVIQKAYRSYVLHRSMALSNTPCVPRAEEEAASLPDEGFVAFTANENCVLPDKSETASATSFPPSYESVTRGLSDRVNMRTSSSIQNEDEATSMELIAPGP

Which IC50 does the source give for “3,4-Dihydro-1H-isoquinoline-2-carbothioic acid benzhydryl-amide [Example 53]” here?
The IC50 was 4060 nM.

Which IC50 does the source give for `COc1cccc2c1CN(C(=O)CNC(c1ccccc1)c1ccccc1)CC2` [Example 38, 2-(Benzhydryl-amino)-1-(8-methoxy-3,4-dihydro-1H-isoquinoline-2-yl)-ethanone] here?
Its IC50 is 1390 nM.

For `Oc1cccc2c1CN(CC(c1ccccc1)c1ccccc1)CC2` [Example 11, 2-(2,2-Diphenyl-ethyl)-1,2,3,4-tetrahydro-isoquinoline-8-ol], which IC50 is on record?
The IC50 was 600 nM.

How did the IC50 turn out when `O=C(CN1Cc2ccccc2C1)NCCC(c1ccccc1)c1ccccc1` [Example 40, 2-(1,3-Dihydro-isoindol-2-yl)-N-(3,3-diphenyl-propyl)-acetamide] was run?
The IC50 was 970 nM.

For `Cc1cc(C(C)(CCCN2CCc3cccc(O)c3C2)c2cc(C)c(O)c(C)c2)cc(C)c1O` [Example 97, 2-[4,4-Bis-(4-hydroxy-3,5-dimethyl-phenyl)-pentyl]-1,2,3,4-tetrahydroisoquinolin-8-ol], which IC50 is on record?
The IC50 was 1060 nM.

With `O=C(CN1Cc2ccccc2C1)NCC(c1ccccc1)c1ccccc1` [Example 66] as the molecule, how does the IC50 read?
Its IC50 is 2050 nM.

`O=C(CN1Cc2ccccc2C1)N1CCN(C(c2ccccc2)c2ccccc2)CC1` [Example 67, 1-(4-Benzhydryl-piperazin-1-yl)-2-(1,3-dihydro-isoindol-2-yl)-ethanone] was tested. Which IC50 did it give?
The IC50 was 2350 nM.

With `O=C(CN1CCc2ccccc2C1)NCC(c1ccccc1)c1ccccc1` [Example 60, 2-(3,4-Dihydro-1H-isoquinolin-2-yl)-N-(2,2-diphenyl-ethyl)-acetamide] as the molecule, how does the IC50 read?
Its IC50 is 950 nM.

Which IC50 does the source give for `Oc1cccc2c1CN(Cc1n[nH]nc1-c1ccccc1)CC2` [Example 45, 2-(5-Phenyl-2H-[1,2,3]triazol-4-ylmethyl)-1,2,3,4-tetrahydro-isoquinolin-8-ol] here?
Its IC50 is 7210 nM.

How did the IC50 turn out when `c1ccc(C(CN2CCc3ccccc3C2)c2ccccc2)cc1` [Example 12, 2-(2,2-Diphenyl-ethyl)1,2,3,4-tetrahydro-isoquinoline] was run?
Its IC50 is 990 nM.

With `O=C(CNCCC(c1ccccc1)c1ccccc1)N1CCc2ccccc2C1` [Example 34, 1-(3,4-Dihydro-1H-isoquinolin-2-yl)-2-(3,3-diphenyl-propylamino)-ethanone] as the molecule, how does the IC50 read?
The IC50 was 190 nM.

How did the IC50 turn out when `COc1cccc2c1CN(CC(=O)N1CCN(C(c3ccc(F)cc3)c3ccc(F)cc3)CC1)CC2` [Example 63, 1-{4-[Bis-(4-fluoro-phenyl)-methyl]-piperazin-1-yl}-2-(8-methoxy-3,4-dihydro-1H-isoquinolin-2-yl)-ethanone] was run?
The IC50 was 15800 nM.

For `O=C(CN1CCc2ccccc2C1)N(Cc1ccccc1)Cc1ccccc1` [Example 16, N,N-Dibenzyl-2-(3,4-dihydro-1H-isoquinolin-2yl)-acetamide], which IC50 is on record?
Its IC50 is 880 nM.

With `O=C(CN1CCc2ccccc2C1)NCCC(c1ccccc1)c1ccccc1` [Example 18, 2-(3,4-Dihydro-1H-isoquinolin-2yl)-N-(3,3-diphenyl-propyl)-acetamide] as the molecule, how does the IC50 read?
Its IC50 is 680 nM.

`COc1cccc2c1CN(C(C)C(=O)NCCC(c1ccccc1)c1ccccc1)CC2` (centres unmarked) [Example 77, N-(3,3-Diphenyl-propyl)-2-(8-methoxy-3,4-dihydro-1H-isoquinolin-2-yl)-propionamide] was tested. Which IC50 did it give?
The IC50 was 660 nM.

With `COc1cccc2c1CN(C(=S)NCC(c1ccccc1)c1ccccc1)CC2` [Example 52, 8-Methoxy-3,4-dihydro-1H-isoquinolin-2-carbothioic acid (2,2-diphenyl-ethyl)-amide] as the molecule, how does the IC50 read?
Its IC50 is 4680 nM.

same assay, conditions: Table 2 (compound numbers of the list in the description); SH-SY-5Y hNav1.8 cells, inhibition of membrane depolarisation, FLIPR membrane potential dye, 250 nM TTX, test concentration range 100 μM-0.05 μM; read-out: IC50

`COc1cc2c(cc1OC)CN(CC(=O)N1c3ccccc3Sc3ccccc31)CC2` [Compound 152, 2-(6,7-Dimethoxy-3,4-dihydro-1H-isoquinolin-2-yl)-1-phenothiazin-10-yl-ethanone] was tested. Which IC50 did it give?
Its IC50 is 3030 nM.

`COc1ccc(C(CCNC(=O)CN2CCc3cccc(OC)c3C2)c2ccc(OC)cc2)cc1` [Compound 115, N-[3,3-Bis-(4-methoxy-phenyl)-propyl]-2-(8-methoxy-3,4-dihydro-1H-isoquinolin-2-yl)-acetamide] was tested. Which IC50 did it give?
The IC50 was 2350 nM.

Which IC50 does the source give for `O=C(CN1CCc2ccccc2C1)NC(c1ccc(F)cc1)c1ccc(F)cc1` [Compound 119, N-[Bis-(4-fluoro-phenyl)-methyl]-2-(3,4-dihydro-1H-isoquinolin-2-yl)-acetamide] here?
Its IC50 is 1910 nM.

Which IC50 does the source give for `O=C(CN1Cc2ccccc2C1)NCCC(c1ccccc1)c1ccccc1` [Example 40, 2-(1,3-Dihydro-isoindol-2-yl)-N-(3,3-diphenyl-propyl)-acetamide] here?
Its IC50 is 530 nM.

How did the IC50 turn out when `COc1cccc2c1CN(CCNC(=S)NC(c1ccccc1)c1ccccc1)CC2` [Compound 133, 1-Benzhydryl-3-[2-(8-methoxy-3,4-dihydro-1H-isoquinolin-2-yl)-ethyl]-thiourea] was run?
Its IC50 is 600 nM.

How did the IC50 turn out when `O=C(NCCN1CCc2cccc(O)c2C1)N1c2ccccc2Oc2ccccc21` [Compound 163, Phenoxazine-10-carboxylic acid [2-(8-hydroxy-3,4-dihydro-1H-isoquinolin-2-yl)-ethyl]-amide] was run?
The IC50 was 770 nM.

For `COc1cccc2c1CN(CC(=O)N1c3ccccc3Sc3ccc(Cl)cc31)CC2` [Compound 142, 1-(2-Chloro-phenothiazin-10-yl)-2-(8-methoxy-3,4-dihydro-1H-isoquinolin-2-yl)-ethanone], which IC50 is on record?
Its IC50 is 2090 nM.

`CS(=O)(=O)Nc1cccc2c1CN(CC(=O)N1c3ccccc3Oc3ccccc31)C2` [Compound 210, N-[2-(2-Oxo-2-phenoxazin-10-yl-ethyl)-2,3-dihydro-1H-isoindol-4-yl]-methanesulfonamide] was tested. Which IC50 did it give?
The IC50 was 3460 nM.

`O=C(CN1Cc2cccc(Cl)c2C1)N1c2ccccc2Oc2ccccc21` [Compound 219, 2-(4-Chloro-1,3-dihydro-isoindol-2-yl)-1-phenoxazin-10-yl-ethanone] was tested. Which IC50 did it give?
Its IC50 is 800 nM.

For `COc1cccc2c1CN(CC(=O)NC(c1ccc(F)cc1)c1ccc(F)cc1)CC2` [Compound 120, N-[Bis-(4-fluoro-phenyl)-methyl]-2-(8-methoxy-3,4-dihydro-1H-isoquinolin-2-yl)-acetamide], which IC50 is on record?
Its IC50 is 3340 nM.

Which IC50 does the source give for `O=C(CN1c2ccccc2Oc2ccccc21)N1Cc2ccccc2C1` [Compound 218, 1-(1,3-Dihydro-isoindol-2-yl)-2-phenoxazin-10-yl-ethanone] here?
The IC50 was 12800 nM.

Which IC50 does the source give for `COc1cccc2c1CN(C(C)C(=O)N1c3ccccc3Oc3ccccc31)CC2` (centres unmarked) [Compound 200, 2-(8-Methoxy-3,4-dihydro-1H-isoquinolin-2-yl)-1-phenoxazin-10-yl-propan-1-one] here?
Its IC50 is 1660 nM.

Which IC50 does the source give for `O=C(CN1Cc2ccccc2C1)NCC(c1ccccc1)c1ccccc1` [Example 66] here?
The IC50 was 2050 nM.

How did the IC50 turn out when `COc1cc2c(cc1OC)CN(CC(=O)NC(c1ccc(F)cc1)c1ccc(F)cc1)CC2` [Compound 121, N-[Bis-(4-fluoro-phenyl)-methyl]-2-(6,7-dimethoxy-3,4-dihydro-1H-isoquinolin-2-yl)-acetamide] was run?
The IC50 was 3450 nM.

`COc1cccc2c1CN(CCNC(=O)Nc1ccc(Oc3ccccc3)cc1)CC2` [Compound 174, 1-[2-(8-Methoxy-3,4-dihydro-1H-isoquinolin-2-yl)-ethyl]-3-(4-phenoxy-phenyl)-urea] was tested. Which IC50 did it give?
Its IC50 is 550 nM.

For `O=C(CN1CCc2cccc(O)c2C1)NCCCn1c2ccccc2c2ccccc21` [Compound 129, N-(3-Carbazol-9-yl-propyl)-2-(8-hydroxy-3,4-dihydro-1H-isoquinolin-2-yl)-acetamide], which IC50 is on record?
The IC50 was 2480 nM.

`COc1cccc2c1CN(CCNC(=S)NCC(c1ccccc1)c1ccccc1)CC2` [Compound 137, 1-(2,2-Diphenyl-ethyl)-3-[2-(8-methoxy-3,4-dihydro-1H-isoquinolin-2-yl)-ethyl]-thiourea] was tested. Which IC50 did it give?
The IC50 was 440 nM.

`COc1cc2c(cc1OC)CN(CC(=O)N1c3ccccc3S(=O)(=O)c3ccccc31)CC2` [Compound 151, 2-(6,7-Dimethoxy-3,4-dihydro-1H-isoquinolin-2-yl)-1-(5,5-dioxo-5H-5lambda*6*-phenothiazin-10-yl)-ethanone] was tested. Which IC50 did it give?
Its IC50 is 7440 nM.

Which IC50 does the source give for `COc1cccc2c1CN(CC(=O)Nc1ccc(Oc3ccccc3)cc1)CC2` [Compound 172, 2-(8-Methoxy-3,4-dihydro-1H-isoquinolin-2-yl)-N-(4-phenoxy-phenyl)-acetamide] here?
Its IC50 is 6270 nM.

How did the IC50 turn out when `COc1cccc2c1CN(CC(=O)N1c3ccccc3OCC1C(C)(C)C)CC2` (centres unmarked) [Compound 206, 1-(3-tert-Butyl-2,3-dihydro-benzo[1,4]oxazin-4-yl)-2-(8-methoxy-3,4-dihydro-1H-isoquinolin-2-yl)-ethanone] was run?
The IC50 was 1620 nM.

For `COc1cc2c(cc1OC)CN(CCNC(=O)NC(c1ccccc1)c1ccccc1)CC2` [Compound 136, 1-Benzhydryl-3-[2-(6,7-dimethoxy-3,4-dihydro-1H-isoquinolin-2-yl)-ethyl]-urea], which IC50 is on record?
Its IC50 is 2110 nM.

With `COc1cccc2c1CN(CC(=O)N1c3ccccc3Sc3ccc(C(C)=O)cc31)CC2` [Compound 148, 1-(2-Acetyl-phenothiazin-10-yl)-2-(8-methoxy-3,4-dihydro-1H-isoquinolin-2-yl)-ethanone] as the molecule, how does the IC50 read?
Its IC50 is 5170 nM.
